Laboratory results from publication PMC6844396, “Design, synthesis and biological evaluation of novel 1H-1,2,4-triazole, benzothiazole and indazole-based derivatives as potent FGFR1 inhibitors viafragment-based virtual screening” (Journal of Enzyme Inhibition and Medicinal Chemistry, 2019).
pIC50: −log10 of the molar value.

What was measured:
FGFR1 = FGFR1 (Homo sapiens, UniProt P11362); experiment: ELISA kinase assay, FGFR1; format: biochemical; conditions: ELISA; average values from two separate experiments
Description: Elisa kinase assay. The effects of the indicated compounds on the activities of receptor tyrosine kinases were determined using enzyme-linked immunosorbent assays (ELISAs) with purified recombinant proteins. Briefly, 20 μg/mL poly (Glu,Tyr)4:1 (Sigma, St Louis, MO, USA) was pre-coated in 96-well plates as a substrate. A 50 μL aliquot of 10 μmol/L ATP solution diluted in kinase reaction buffer (50 mmol/L HEPES [pH 7.4], 50 mmol/L MgCl2, 0.5 mmol/L MnCl2, 0.2 mmol/L Na3VO4, and 1 mmol/L DTT) was added to each well; 1 μL of different compounds with indicated concentration diluted in 1% DMSO (v/v) (Sigma, St Louis, MO, USA) were then added to each reaction well. DMSO (1%, v/v) was used as the negative control. The kinase reaction was initiated by the addition of purified tyrosine kinase proteins (FGFR1, FGFR2, FGFR3, FGFR4, ALK, Bcr-Abl, EPH-A2, Flt-1, RET, c-Src, IGF1R, c-Met, EGFR, ErbB2) diluted in 49 μL of kinase reaction buffer solution. After incubation for 60 min at 37 °C, the plate was washed three times with phosphate-buffered saline (PBS) containing 0.1% Tween 20 (T-PBS). Anti-phosphotyrosine (PY99) antibody (100 μL; 1:500, diluted in 5 mg/mL BSA T-PBS) was then added. After a 30 min incubation at 37 °C, the plate was washed three times, and 100 μL horseradish peroxidase-conjugated goat anti-mouse IgG (1:2000, diluted in 5 mg/mL BSA T-PBS) was added. The plate was then incubated at 37 °C for 30 min and washed 3 times. A 100 μL aliquot of a solution containing 0.03% H2O2 and 2 mg/mL o-phenylenediamine in 0.1 mol/l citrate buffer (pH 5.5) was added. The reaction was terminated by the addition of 50 μL of 2 mol/l H2SO4 as the colour changed, and the plate was analysed using a multi-well spectrophotometer (SpectraMAX 190, Molecular Devices, Sunnyvale, CA, USA) at 490 nm. The inhibition rate (%) was calculated using the following equation: [1-(A490/A490 control)] × 100%. The IC50 values were calculated from the inhibition curves in two separate experiments.

SNU-16 cell = experiment: Cell proliferation assay (CCK-8 or MTT), SNU-16; format: cell-based, Human; conditions: for pIC50: SNU-16 is FGFR2-amplified cell type, 72 h
Description: Human gastric cancer cell line SNU-16 was purchased from American Type Culture Collection (ATCC, Manssas, VA, USA). All the cell lines were routinely maintained in complete medium according to the suppliers’ recommendations.
Cells were seeded in 96-well tissue culture plates. On the day when seeding, the cells were exposed to various concentrations of compounds and further cultured for 72 h at 37 °C. Finally, cell proliferation was determined using Cell Counting Kit (CCK-8) or the thiazolyl blue tetrazolium bromide (MTT, from Sigma-Aldrich, St. Louis, MO, USA) assay. The IC50 values were calculated by concentration–response curve fitting using a SoftMax pro-based four-parameter method.

FGFR1, sequence (P11362 22-822): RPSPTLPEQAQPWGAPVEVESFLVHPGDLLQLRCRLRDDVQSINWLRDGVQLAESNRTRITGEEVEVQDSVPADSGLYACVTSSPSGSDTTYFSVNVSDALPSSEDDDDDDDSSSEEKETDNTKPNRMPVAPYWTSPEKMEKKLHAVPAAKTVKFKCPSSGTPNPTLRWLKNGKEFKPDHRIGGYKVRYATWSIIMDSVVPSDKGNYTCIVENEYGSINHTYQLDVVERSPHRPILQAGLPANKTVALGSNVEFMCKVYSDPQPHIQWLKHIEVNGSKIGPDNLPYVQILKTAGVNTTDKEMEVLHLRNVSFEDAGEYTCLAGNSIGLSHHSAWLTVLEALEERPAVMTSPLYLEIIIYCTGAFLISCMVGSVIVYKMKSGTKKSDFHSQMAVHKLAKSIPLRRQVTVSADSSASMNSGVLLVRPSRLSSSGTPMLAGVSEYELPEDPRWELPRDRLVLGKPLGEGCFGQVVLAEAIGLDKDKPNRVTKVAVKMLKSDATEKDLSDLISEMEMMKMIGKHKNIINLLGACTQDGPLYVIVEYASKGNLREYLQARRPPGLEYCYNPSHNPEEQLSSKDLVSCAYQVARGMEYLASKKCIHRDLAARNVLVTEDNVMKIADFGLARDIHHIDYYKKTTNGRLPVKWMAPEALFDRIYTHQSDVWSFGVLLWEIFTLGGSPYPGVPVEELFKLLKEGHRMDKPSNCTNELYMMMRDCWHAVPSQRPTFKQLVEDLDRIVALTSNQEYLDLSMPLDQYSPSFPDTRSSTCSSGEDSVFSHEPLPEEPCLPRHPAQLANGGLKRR

Compound	melting point [°C]	pIC50 (FGFR1)	pIC50 (SNU-16 cell; Homo sapiens, Table 1)	pIC50 (SNU-16 cell; Homo sapiens, Table 3)	pIC50 (SNU-16 cell; Homo sapiens, Table 2)	enhancement of the cellular inhibition (SNU-16 cell; 9o vs 9d, SNU-16) [fold]	pIC50 (SNU-16 cell; Table 1)
COc1cc(F)cc(-c2ccc3c(NC(=O)c4ccc(N5CCCN(C)CC5)cc4)n[nH]c3c2)c1 [9w, N-(6–(3-fluoro-5-methoxyphenyl)-1H-indazol-3-yl)-4–(4-methyl-1,4-diazepan-1-yl)benzamide]	230.4 to 234.6	8.48	–	6.25	–	–	–
CCOc1cccc(-c2ccc3c(NC(=O)c4ccc(N5CCN(CC)CC5)cc4)n[nH]c3c2)c1 [9e, N-(6–(3-ethoxyphenyl)-1H-indazol-3-yl)-4–(4-ethylpiperazin-1-yl)benzamide]	223.6 to 226	7.88	–	–	5.75	–	–
CCN1CCN(c2ccc(C(=O)Nc3n[nH]c4cc(-c5ccc(C#N)cc5)ccc34)cc2)CC1 [9s, N-(6–(4-cyanophenyl)-1H-indazol-3-yl)-4–(4-ethylpiperazin-1-yl)benzamide]	226.4 to 230	< 6.00	–	–	< 5.30	–	–
CCN1CCN(c2ccc(C(=O)Nc3n[nH]c4cc(-c5cccc(Cl)c5Cl)ccc34)cc2)CC1 [9m, N-(6–(2,3-dichlorophenyl)-1H-indazol-3-yl)-4–(4-ethylpiperazin-1-yl)benzamide]	220.1 to 222.4	7.35	–	–	5.93	–	–
COc1cc(F)cc(-c2ccc3c(NC(=O)c4ccc(N5C[C@@H](C)N[C@@H](C)C5)cc4)n[nH]c3c2)c1 [9v, 4-((3R,5S)-3,5-dimethylpiperazin-1-yl)-N-(6–(3-fluoro-5-methoxyphenyl)-1H-indazol-3-yl)benzamide]	229.6 to 233.4	7.88	–	6.36	–	–	–
CCN1CCN(c2ccc(C(=O)Nc3n[nH]c4cc(-c5cccc(OC)c5)ccc34)cc2)CC1 [9d, 4–(4-ethylpiperazin-1-yl)-N-(6–(3-methoxyphenyl)-1H-indazol-3-yl)benzamide]	–	7.82	6.10	–	–	–	–
CCN1CCN(c2ccc(C(=O)Nc3n[nH]c4cc(-c5ccc(C(F)(F)F)cc5Cl)ccc34)cc2)CC1 [9p, N-(6–(2-chloro-4-(trifluoromethyl)phenyl)-1H-indazol-3-yl)-4–(4-ethylpiperazin-1-yl)benzamide]	227.9 to 232	< 6.00	–	–	< 5.30	–	–
CCN1CCN(c2ccc(C(=O)Nc3n[nH]c4cc(-c5cccc(OC(C)C)c5)ccc34)cc2)CC1 [9f, 4–(4-ethylpiperazin-1-yl)-N-(6–(3-isopropoxyphenyl)-1H-indazol-3-yl)benzamide]	227.9 to 231.7	8.01	–	–	5.82	–	–
CCN1CCN(c2ccc(C(=O)Nc3n[nH]c4cc(-c5ccc(Cl)c(Cl)c5)ccc34)cc2)CC1 [9n, N-(6–(3,4-dichlorophenyl)-1H-indazol-3-yl)-4–(4-ethylpiperazin-1-yl)benzamide]	224.9 to 228	< 6.00	–	–	< 5.30	–	–
CCN1CCN(c2ccc(C(=O)Nc3n[nH]c4cc(-c5cc(F)cc(OC)c5)ccc34)cc2)CC1 [9o, 4–(4-ethylpiperazin-1-yl)-N-(6–(3-fluoro-5-methoxyphenyl)-1H-indazol-3-yl)benzamide]	225.5 to 227	8.26	–	–	6.24	1.4	–
CCN1CCN(c2ccc(C(=O)Nc3n[nH]c4cc(-c5cc(C(F)(F)F)cc(C(F)(F)F)c5)ccc34)cc2)CC1 [9j, N-(6–(3,5-bis(trifluoromethyl)phenyl)-1H-indazol-3-yl)-4–(4-ethylpiperazin-1-yl)benzamide]	–	< 6.00	–	–	< 5.30	–	–
AZD4547 [reference compound]	–	–	–	–	–	–	8.21
CCC(C)Oc1cccc(-c2ccc3c(NC(=O)c4ccc(N5CCN(CC)CC5)cc4)n[nH]c3c2)c1 (stereo not drawn) [9g, N-(6–(3-(sec-butoxy)phenyl)-1H-indazol-3-yl)-4–(4-ethylpiperazin-1-yl)benzamide]	–	< 6.00	–	–	< 5.30	–	–
CCN1CCN(c2ccc(C(=O)Nc3n[nH]c4cc(-c5ccc(C)c(OC)c5)ccc34)cc2)CC1 [9i, 4–(4-ethylpiperazin-1-yl)-N-(6–(3-methoxy-4-methylphenyl)-1H-indazol-3-yl) benzamide]	227.3 to 231.2	< 6.00	–	–	< 5.30	–	–
COc1cccc(-c2ccc3c(NC(=O)c4ccc(N5C[C@@H](C)N[C@@H](C)C5)cc4)n[nH]c3c2)c1 [9b, 4-((3R,5S)-3,5-dimethylpiperazin-1-yl)-N-(6–(3-methoxyphenyl)-1H-indazol-3-yl)benzamide]	224.8 to 227.4	7.68	5.98	–	–	–	–
CCN1CCN(c2ccc(C(=O)Nc3n[nH]c4cc(-c5ccccc5OC(F)(F)F)ccc34)cc2)CC1 [9r, 4–(4-ethylpiperazin-1-yl)-N-(6–(2-(trifluoromethoxy)phenyl)-1H-indazol-3-yl)benzamide]	230.9 to 233.5	< 6.00	–	–	< 5.30	–	–
COc1cccc(-c2ccc3c(NC(=O)c4ccc(N5CCN(C)CC5)cc4)n[nH]c3c2)c1 [9c, N-(6–(3-methoxyphenyl)-1H-indazol-3-yl)-4–(4-methylpiperazin-1-yl)benzamide]	224.8 to 227.4	7.55	6.07	–	–	–	–
COc1cc(OC)cc(-c2ccc3c(NC(=O)c4ccc(N5C[C@@H](C)N[C@@H](C)C5)cc4)n[nH]c3c2)c1 [9a, N-(6–(3,5-dimethoxyphenyl)-1H-indazol-3-yl)-4-((3R,5S)-3,5-dimethylpiperazin-1-yl)benzamide]	–	7.51	5.92	–	–	–	–

More lines, main results first:

melting point [°C]	pIC50 (FGFR1)	pIC50 (SNU-16 cell; Homo sapiens, Table 1)	pIC50 (SNU-16 cell; Homo sapiens, Table 3)	pIC50 (SNU-16 cell; Homo sapiens, Table 2)	Compound	enhancement of the cellular inhibition (SNU-16 cell; 9o vs 9d, SNU-16) [fold]	pIC50 (SNU-16 cell; Table 1)
220.9 to 223.3	< 6.00	< 5.30	–	–	COc1cc(CCc2nc(NC(=O)c3ccc(N4CCN(C)CC4)cc3)n[nH]2)cc(OC)c1 [18c, N-(5–(3,5-dimethoxyphenethyl)-1H-1,2,4-triazol-3-yl)-4–(4-methylpiperazin-1-yl)benzamide]	–	–
218.1 to 222.5	< 6.00	< 5.30	–	–	CN1CCN(c2ccc(C(=O)Nc3n[nH]c(CCc4ccccc4)n3)cc2)CC1 [18a, 4–(4-methylpiperazin-1-yl)-N-(5-phenethyl-1H-1,2,4-triazol-3-yl)benzamide]	–	–
230.5 to 233.2	< 6.00	< 5.30	–	–	COc1cccc(-c2ccc3nc(NC(=O)c4ccc(N5CCN(C)CC5)cc4)sc3c2)c1 [12a, N-(6–(3-methoxyphenyl)benzo[d]thiazol-2-yl)-4–(4-methylpiperazin-1-yl) benzamide]	–	–
234.6 to 238.2	< 6.00	< 5.30	–	–	COc1cc(OC)cc(-c2ccc3nc(NC(=O)c4ccc(N5CCN(C)CC5)cc4)sc3c2)c1 [12b, N-(6–(3,5-dimethoxyphenyl)benzo[d]thiazol-2-yl)-4–(4-methylpiperazin-1-yl) benzamide]	–	–
237.7 to 240.3	8.34	–	6.13	–	COc1cc(F)cc(-c2ccc3c(NC(=O)c4cnc(N5CCN(C)CC5)cn4)n[nH]c3c2)c1 [9z, N-(6–(3-fluoro-5-methoxyphenyl)-1H-indazol-3-yl)-5–(4-methylpiperazin-1-yl)pyrazine-2-carboxamide]	–	–
236.4 to 238.3	< 6.00	< 5.30	–	–	COc1cc(-c2ccc3nc(NC(=O)c4ccc(N5CCN(C)CC5)cc4)sc3c2)cc(OC)c1OC [12c, 4–(4-methylpiperazin-1-yl)-N-(6–(3,4,5-trimethoxyphenyl)benzo[d]thiazol-2-yl)benzamide]	–	–
–	< 6.00	–	–	–	N-(5–(3-methoxyphenethyl)-1H-1,2,4-triazol-3-yl)-4–(4-methylpiperazin-1-yl) benzamide [18b]	–	< 5.30
240.3 to 242.5	< 6.00	–	< 5.30	–	COc1cc(F)cc(-c2ccc3c(NC(=O)c4ccc(CN5CCN(C)CC5)cc4)n[nH]c3c2)c1 [9x, N-(6–(3-fluoro-5-methoxyphenyl)-1H-indazol-3-yl)-4-((4-methylpiperazin-1-yl)methyl)benzamide]	–	–
